In patent US9278086B2, “Combination therapy and uses thereof for treatment and prevention of parasitic infection and disease” (The Royal Institution for the Advancement of …, priority 2010, dated 2016):

Assays:
in vivo = assay: in vivo; set-up: species or system mice; conditions: mouse
Procedure: Cysteamine was detected in plasma by high performance liquid chromatography analysis with ultraviolet detection (Dias V C, et al. (1998) Clin Chem 44: 2199-2201). Briefly, blood was collected in EDTA/heparin-containing tubes, and plasma was obtained by centrifugation. Plasma thiols were reduced by treatment with Tris(2-carboxyethyl)phosphine (0.05M final concentration, 20 min. at 20° C.), and proteins were precipitated with tri-chloroacetic acid (TCA, 10% final concentration). Free thiols from the protein-free supernatant were derivatized using SBD-F ([…]), used at a final concentration of 0.2 mg/ml (1 hr at 60° C.) in 0.05 M borate buffer (pH 9.5). The mixture was then analyzed by HPLC: the mobile phase consisted of an aqueous solvent (0.1M acetic acid, 0.1 sodium acetate, pH 4.3) running on a Supelco™ LC-8 column, and elution of plasma analytes was with a 0-10% acetonitrile gradient. Detection of SBD-F derivatized analytes was by reading fluorescence at 515 nm (excitation at 385 nm). Cysteamine elution peaks were quantified (surface area), and plasma concentrations were calculated using a set of internal cysteamine standards processed at the same time. Area under the curve (AUCt0-tlast) was calculated using the trapezoid approximation method.
To gain more insight into the anti-malarial effect of cysteamine (Cys) in vivo, the pharmacokinetic characteristics (plasma level) of Cys administered through the sub-cutaneous (s.c.) and intra-peritoneal (i.p) routes was compared. […] To determine which pharmacokinetic parameter (AUC vs. Cmax) is important for efficacy against Plasmodium, the i.p. and s.c. routes of injection were compared in a continuous treatment regimen, starting one day prior to infection (10^5 pRBC of P. chabaudi, i.v.) and continuing daily for 7 days. Parasitemia was monitored on thin blood smears at days 5, 6 and 7 following infection (FIG. 1B). Treatment of infected animals with 120 mg/kg of Cys administered either s.c. or i.p. caused a highly significant (p<0.01) 50% reduction in parasitemia at day 5 and 6, relative to saline injected controls.
It was next determined whether Cys at equivalent dosing to that used in the clinical treatment of nephropathic cystinosis in humans has an effect on the course and severity of P. chabaudi infection in mice. In cystinosis patients, Cys is given orally as Cys bitartrate (Cystagon®). […] The efficacy of different regimens of 50 mg/kg Cys s.c. (number of injections, interval between injections) on replication of P. chabaudi in vivo was evaluated. P. chabaudi-infected mice were treated daily, starting at day −1 and continuing to day 10, with either 1×150 mg/kg, 3×50 mg/kg given at 2 hr intervals, 4×50 mg/kg given at 2 hr intervals or 3×50 mg/kg given at 1 hr intervals of Cys, and blood parasitemia was monitored at days 5, 6 and 7 (FIG. 2B).

Plasmodium chabaudi = assay: Progression, resolution and survival of lethal P. chabaudi infection (10^6 pRBC i.v.) in A/J mice; format: in vivo; conditions: Cys alone 60 mg/kg, days 0-3
Procedure: A/J and C57BL/6 (B6) mice were purchased from the Jackson Laboratories (Bar Harbor, Me.) and were housed at McGill University according to the guidelines of the Canadian Council on Animal Care. An LDH virus-free isolate of P. chabaudi AS was maintained by weekly passage in A/J mice. Mice were infected intravenously into the tail vein (i.v.) with 10^6 or 10^7 pRBC suspended in pyrogen-free saline. Following infection, the percentage of pRBC was determined daily on thin blood smears stained with Dif-Quik™ (Dade Behring, Newark, Del.), as described (Fortin A, et al. (2001) Proc Natl Acad Sci USA 98: 10793-10798).
Cysteamine hydrochloride (Sigma, Burlington ON) was prepared in PBS. Chloroquine hydrochloride, artesunate and dihydroartemisinin were provided by Dafra Pharmaceuticals; chloroquine was prepared in PBS, artesunate and DHA were prepared in 5% sodium bicarbonate and diluted in water to appropriate concentrations. All solutions were prepared fresh daily, filter sterilized and injections were performed intra-peritoneally (i.p) or subcutaneously (s.c.) for 4 days or according to treatment regimen. Mice were weighed prior to treatment to determine appropriate doses and injection volumes ranged from 100-400 μL per mouse. In the case of animals treated with two drugs, artemisinin derivatives were administered first (due to the short half life of cysteamine), followed by cysteamine 5-10 minutes later on alternate sides. Untreated control animals were injected with PBS alone.
It was investigated if low dose Cys could potentiate standard doses of ART that show therapeutic activity in vivo and concurrently determined possible long-term effects on patent parasitemia, resolution of infection and survival in a lethal infection model. In this protocol, mice were infected with 10^6 pRBC P. chabaudi (i.v.) and treated with Cys (60 mg/kg) and/or ART (0.5, 1, 2, 5 and 10 mg/kg) for 4 days (days 0-3), while blood parasitemia and survival were followed for 22 days. Control animals treated with either PBS or Cys alone (60 mg/kg) developed high parasite burdens, which peaked at day 6, and all mice succumbed to the infection by day 7 (FIGS. 5A and 5C). […] Likewise, although all mice treated with 0.5 mg/kg ART succumbed to the infection early (day 8), mice additionally receiving Cys survived until day 9; moreover, addition of Cys to 1.0 mg/kg ART completely rescued animals from lethality of infection, with 100% survival in this group (FIGS. 5B, 5C).

For `NCCS` [Cysteamine], the AUC (in vivo; ip, 120 mg/kg) was 405 µM·h, the Cmax (in vivo; ip, 120 mg/kg) was 665 µM and the Tmax (in vivo; ip, 120 mg/kg) was less than 5 min. For the same molecule, the AUC (in vivo; sc, 50 mg/kg) was 47.4 µM·h, the Cmax (in vivo; sc, 50 mg/kg) was roughly 80 µM and the AUC (in vivo; sc, 120 mg/kg) was 255 µM·h. For the same molecule, the Cmax (in vivo; sc, 120 mg/kg) was 250 µM, the Tmax (in vivo; sc, 120 mg/kg) was 30 min and the “day at which parasite burdens peaked” value (Plasmodium chabaudi) was 6 days. The “day by which all mice succumbed to the infection” value (Plasmodium chabaudi) was no more than 7 days.
